Values joined by “and” are separate entries in the source; they are usually repeats but may differ in a detail not shown here. Equal entries are not always repeated.
Tested on: 699152-130-R-J1-PDC complex spheroid growth
Test: Anticancer human tumor 699152-130-R-J1-PDC patient-derived pancreatic carcinoma cell line growth inhibition [AhR]
Conditions: for viability, T/C: stronger effect = lower value
Outline: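 Complex tumor spheroids co-cultured with HUVEC and human MSC stroma; AhR antagonists tested in combination with standard-of-care and investigational agents. Top concentration at or near clinical Cmax (else 10 microM), half-log dilutions; growth expressed as percent test/control.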

[1] = curve of first compound, second compound 0.1 µM
[2] = curve of first compound, second compound 0.316 µM
[3] = curve of first compound, second compound 1 µM
[4] = curve of first compound, second compound 3.16 µM
[5] = curve of first compound, second compound 10 µM
[6] = second compound 0.1 µM, first compound 0.0316 µM
[7] = second compound 0.1 µM, first compound 0.1 µM
[8] = second compound 0.1 µM, first compound 0.316 µM
[9] = second compound 0.1 µM, first compound 1 µM
[10] = second compound 0.1 µM, first compound 3.16 µM
[11] = second compound 0.1 µM, first compound 10 µM
[12] = second compound 0.316 µM, first compound 0.0316 µM
[13] = second compound 0.316 µM, first compound 0.1 µM
[14] = second compound 0.316 µM, first compound 0.316 µM
[15] = second compound 0.316 µM, first compound 1 µM
[16] = second compound 0.316 µM, first compound 3.16 µM
[17] = second compound 0.316 µM, first compound 10 µM
[18] = second compound 1 µM, first compound 0.0316 µM
[19] = second compound 1 µM, first compound 0.1 µM
[20] = second compound 1 µM, first compound 0.316 µM
[21] = second compound 1 µM, first compound 1 µM
[22] = second compound 1 µM, first compound 3.16 µM
[23] = second compound 1 µM, first compound 10 µM
[24] = second compound 3.16 µM, first compound 0.0316 µM
[25] = second compound 3.16 µM, first compound 0.1 µM
[26] = second compound 3.16 µM, first compound 0.316 µM
[27] = second compound 3.16 µM, first compound 1 µM
[28] = second compound 3.16 µM, first compound 3.16 µM
[29] = second compound 3.16 µM, first compound 10 µM
[30] = second compound 10 µM, first compound 0.0316 µM
[31] = second compound 10 µM, first compound 0.1 µM
[32] = second compound 10 µM, first compound 0.316 µM
[33] = second compound 10 µM, first compound 1 µM
[34] = second compound 10 µM, first compound 3.16 µM
[35] = second compound 10 µM, first compound 10 µM
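Further: compound exposure lasted 7 days after spheroids had grown for 3 days.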

CC1(C)CCC(CN2CCN(c3ccc(C(=O)NS(=O)(=O)c4ccc(NCC5CCOCC5)c([N+](=O)[O-])c4)c(Oc4cnc5[nH]ccc5c4)c3)CC2)=C(c2ccc(Cl)cc2)C1 + Cc1cncc(-c2nc(NCCc3c[nH]c4ccccc34)c3ncn(C(C)C)c3n2)c1
IC50 [1]: > 10 µM | IC50 [2]: > 10 µM | IC50 [3]: > 10 µM | IC50 [4]: > 10 µM | IC50 [5]: < 0.0316 µM | viability, T/C [6]: 101% | viability, T/C [7]: 111% | viability, T/C [8]: 124% | viability, T/C [9]: 106% | viability, T/C [10]: 109% | viability, T/C [11]: 97.4% | viability, T/C [12]: 114% | viability, T/C [13]: 110% | viability, T/C [14]: 105% | viability, T/C [15]: 107% | viability, T/C [16]: 114% | viability, T/C [17]: 121% | viability, T/C [18]: 127% | viability, T/C [19]: 134% | viability, T/C [20]: 127% | viability, T/C [21]: 117% | viability, T/C [22]: 120% | viability, T/C [23]: 128% | viability, T/C [24]: 121% | viability, T/C [25]: 127% | viability, T/C [26]: 130% | viability, T/C [27]: 123% | viability, T/C [28]: 125% | viability, T/C [29]: 128% | viability, T/C [30]: 19.8% | viability, T/C [31]: 18.4% | viability, T/C [32]: 23.2% | viability, T/C [33]: 23.7% | viability, T/C [34]: 27.9% | viability, T/C [35]: 22.8%

COc1cccc2c1C(=O)c1c(O)c3c(c(O)c1C2=O)CC(O)(C(=O)CO)CC3OC1CC(N)C(O)C(C)O1 (centres undefined)
viability, T/C (compound 0.0316 µM): 71.1% and 70.4% and 82.5% | viability, T/C (compound 0.1 µM): 64.3% and 56.2% and 87.1% | viability, T/C (compound 0.316 µM): 48.5% and 41.1% and 55.1% | viability, T/C (compound 1 µM): 30.3% and 29.7% and 31.8% | viability, T/C (compound 3.16 µM): 3.77% and 2.01% and 2.55% | viability, T/C (compound 10 µM): 8.13% and 7.62% and 11.8% | IC50 (curve of compound): 0.319 µM and 0.179 µM and 0.444 µM

CC(C)CC(NC(=O)C(Cc1ccccc1)NC(=O)c1cnccn1)B(O)O (centres undefined)
viability, T/C (compound 0.000949 µM): 107% and 97.5% and 95.3% | viability, T/C (compound 0.003 µM): 107% and 101% and 94.5% | viability, T/C (compound 0.00949 µM): 99.3% and 79% and 30.8% | viability, T/C (compound 0.03 µM): 1.12% and 0.95% and 0.7% | viability, T/C (compound 0.0949 µM): 0.51% and 0.48% and 0.69% | viability, T/C (compound 0.3 µM): 0.46% and 0.87% and 0.49% | IC50 (curve of compound): 0.0169 µM and 0.0145 µM and 0.0067 µM

CC(C)c1c(-c2ccccc2)nc2c(C#N)c[nH]n2c1=O + CC(CO)NC(=O)c1cc(-c2ccc(Cl)cc2)nn(-c2cnn(C)c2)c1=O
IC50 [1]: > 10 µM | IC50 [2]: > 10 µM | IC50 [3]: > 10 µM | IC50 [4]: > 10 µM | IC50 [5]: > 10 µM | viability, T/C [6]: 97% | viability, T/C [7]: 97.8% | viability, T/C [8]: 109% | viability, T/C [9]: 100% | viability, T/C [10]: 94.9% | viability, T/C [11]: 95.5% | viability, T/C [12]: 93.6% | viability, T/C [13]: 98.7% | viability, T/C [14]: 86.4% | viability, T/C [15]: 87.9% | viability, T/C [16]: 93.3% | viability, T/C [17]: 86.6% | viability, T/C [18]: 99.7% | viability, T/C [19]: 104% | viability, T/C [20]: 105% | viability, T/C [21]: 97.3% | viability, T/C [22]: 85.5% | viability, T/C [23]: 86.8% | viability, T/C [24]: 92.4% | viability, T/C [25]: 90.3% | viability, T/C [26]: 94.8% | viability, T/C [27]: 95.4% | viability, T/C [28]: 83.5% | viability, T/C [29]: 79.5% | viability, T/C [30]: 95.6% | viability, T/C [31]: 100% | viability, T/C [32]: 82.1% | viability, T/C [33]: 82.7% | viability, T/C [34]: 85% | viability, T/C [35]: 79.8%

CC[C@@]1(O)C(=O)OCc2c1cc1n(c2=O)Cc2cc3c(CN(C)C)c(O)ccc3nc2-1 + Cc1cncc(-c2nc(NCCc3c[nH]c4ccccc34)c3ncn(C(C)C)c3n2)c1
IC50 [1]: > 0.1 µM | IC50 [2]: > 0.1 µM | IC50 [3]: > 0.1 µM | IC50 [4]: > 0.1 µM | IC50 [5]: < 0.000316 µM | viability, T/C (second compound 0.1 µM, first compound 0.000316 µM): 102% | viability, T/C (second compound 0.1 µM, first compound 0.001 µM): 98.5% | viability, T/C (second compound 0.1 µM, first compound 0.00316 µM): 100% | viability, T/C (second compound 0.1 µM, first compound 0.01 µM): 101% | viability, T/C [6]: 80.7% | viability, T/C [7]: 69.6% | viability, T/C (second compound 0.316 µM, first compound 0.000316 µM): 101% | viability, T/C (second compound 0.316 µM, first compound 0.001 µM): 98.4% | viability, T/C (second compound 0.316 µM, first compound 0.00316 µM): 98% | viability, T/C (second compound 0.316 µM, first compound 0.01 µM): 93.9% | viability, T/C [12]: 80.3% | viability, T/C [13]: 66.5% | viability, T/C (second compound 1 µM, first compound 0.000316 µM): 105% | viability, T/C (second compound 1 µM, first compound 0.001 µM): 107% | viability, T/C (second compound 1 µM, first compound 0.00316 µM): 105% | viability, T/C (second compound 1 µM, first compound 0.01 µM): 99.4% | viability, T/C [18]: 83.9% | viability, T/C [19]: 62.9% | viability, T/C (second compound 3.16 µM, first compound 0.000316 µM): 112% | viability, T/C (second compound 3.16 µM, first compound 0.001 µM): 92.8% | viability, T/C (second compound 3.16 µM, first compound 0.00316 µM): 95% | viability, T/C (second compound 3.16 µM, first compound 0.01 µM): 93.7% | viability, T/C [24]: 64% | viability, T/C [25]: 54.7% | viability, T/C (second compound 10 µM, first compound 0.000316 µM): 12.6% | viability, T/C (second compound 10 µM, first compound 0.001 µM): 11.5% | viability, T/C (second compound 10 µM, first compound 0.00316 µM): 10.6% | viability, T/C (second compound 10 µM, first compound 0.01 µM): 12.1% | viability, T/C [30]: 11.1% | viability, T/C [31]: 14.1%

Nc1ccccc1NC(=O)c1ccc(CNC(=O)OCc2cccnc2)cc1 + CC(CO)NC(=O)c1cc(-c2ccc(Cl)cc2)nn(-c2cnn(C)c2)c1=O
IC50 [1]: 8.23 µM | IC50 [2]: 6.81 µM | IC50 [3]: 7.78 µM | IC50 [4]: 7.59 µM | IC50 [5]: 6.07 µM | viability, T/C [6]: 98.3% | viability, T/C [7]: 99.1% | viability, T/C [8]: 99.3% | viability, T/C [9]: 99.2% | viability, T/C [10]: 72.6% | viability, T/C [11]: 45.4% | viability, T/C [12]: 97.3% | viability, T/C [13]: 110% | viability, T/C [14]: 107% | viability, T/C [15]: 91.3% | viability, T/C [16]: 78% | viability, T/C [17]: 36.5% | viability, T/C [18]: 97.7% | viability, T/C [19]: 91.4% | viability, T/C [20]: 98.4% | viability, T/C [21]: 92.9% | viability, T/C [22]: 71% | viability, T/C [23]: 44.1% | viability, T/C [24]: 90.2% | viability, T/C [25]: 84.7% | viability, T/C [26]: 97.2% | viability, T/C [27]: 82.2% | viability, T/C [28]: 74.1% | viability, T/C [29]: 42.4% | viability, T/C [30]: 96% | viability, T/C [31]: 88% | viability, T/C [32]: 86.1% | viability, T/C [33]: 83.7% | viability, T/C [34]: 70.8% | viability, T/C [35]: 34.4%
